These results are taken from ChEMBL document CHEMBL1255266, “Mechanisms of resistance to daptomycin in Enterococcus faecium” (2008).

Converted amounts (≈) assume the structure as drawn.

Experiment [1] has as its system Enterococcus faecium. Kind of experiment: Antimicrobial activity against Enterococcus faecium isolate 3 from abdominal wound of patient by Etest. The format is functional.
Experiment [2] deals with Enterococcus faecium. Kind of experiment: Antimicrobial activity against Enterococcus faecium isolate 2 from skin lesion of patient by Etest. The format is functional.
Experiment [3] relates to Enterococcus faecium. Description: Antimicrobial activity against Enterococcus faecium isolate 7 from abdominal wound of patient by Etest.
Experiment [4] deals with Enterococcus faecium. Description: Antimicrobial activity against Enterococcus faecium isolate 5 from patient blood by Etest. The format is functional.
Experiment [5] deals with Enterococcus faecium. Kind of experiment: Antimicrobial activity against Enterococcus faecium isolate 8 from right abdominal wound of patient by Etest.
The subject of experiment [6] is Enterococcus faecium. Description: Antimicrobial activity against Enterococcus faecium isolate 6 from thigh wound of patient by Etest. The format is functional. The settings on record: isolate 6, Thigh muscle.
The test system of experiment [7] is Enterococcus faecium. Description: Antimicrobial activity against Enterococcus faecium isolate 4 from lower extremity wound of patient by Etest. The format is functional.
Experiment [8] concerns Enterococcus faecium. Kind of experiment: Antimicrobial activity against Enterococcus faecium isolate 1 from right groin wound of patient by Etest. The format is functional.
The subject of experiment [9] is Enterococcus faecium. Kind of experiment: Antimicrobial activity against Enterococcus faecium ATCC 35667 by Etest. The format is functional.
A further experiment relates to Staphylococcus aureus. Description: microbe, parasite or virus in culture. Particulars: ATCC 29213.

Description for Staphylococcus aureus: Antimicrobial activity against Staphylococcus aureus ATCC 29213 by Etest

Turning to `CN[C@H](CC(C)C)C(=O)N[C@H]1C(=O)N[C@@H](CC(N)=O)C(=O)N[C@H]2C(=O)N[C@H]3C(=O)N[C@H](C(=O)N[C@H](C(=O)O)c4cc(O)cc(O)c4-c4cc3ccc4O)[C@H](O)c3ccc(c(Cl)c3)Oc3cc2cc(c3O[C@@H]2O[C@H](CO)[C@@H](O)[C@H](O)[C@H]2O[C@H]2C[C@](C)(N)[C@H](O)[C@H](C)O2)Oc2ccc(cc2Cl)[C@H]1O` [VANCOMYCIN], the MIC in the experiment on Enterococcus faecium [1] was < 2 µg/mL; in the experiment on Enterococcus faecium [2], < 2 µg/mL; with Enterococcus faecium [3] it was > 16 µg/mL; with Enterococcus faecium [4], > 16 µg/mL; with Enterococcus faecium [5] it was > 16 µg/mL; against Enterococcus faecium [6] it was > 16 µg/mL. Also, the MIC is > 16 µg/mL against Enterococcus faecium [7] and < 2 µg/mL with Enterococcus faecium [8].
For `CCCCCCCCCC(=O)N[C@@H](Cc1c[nH]c2ccccc12)C(=O)N[C@H](CC(N)=O)C(=O)N[C@@H](CC(=O)O)C(=O)N[C@@H]1C(=O)NCC(=O)N[C@@H](CCCN)C(=O)N[C@@H](CC(=O)O)C(=O)N[C@H](C)C(=O)N[C@@H](CC(=O)O)C(=O)NCC(=O)N[C@H](CO)C(=O)N[C@@H]([C@H](C)CC(=O)O)C(=O)N[C@@H](CC(=O)c2ccccc2N)C(=O)O[C@@H]1C`, the MIC is 16 µg/mL (≈ 9.87 µM) in the experiment on Enterococcus faecium [1]; 4 µg/mL (≈ 2.47 µM) against Enterococcus faecium [2]; 1 µg/mL (≈ 0.617 µM) with Enterococcus faecium [9]; > 16 µg/mL with Enterococcus faecium [3]; 8 µg/mL (≈ 4.94 µM) with Enterococcus faecium [4]; 16 µg/mL (≈ 9.87 µM) against Enterococcus faecium [5]. The MIC turned out to be 16 µg/mL (≈ 9.87 µM) against Enterococcus faecium [6], 16 µg/mL (≈ 9.87 µM) against Enterococcus faecium [7], 0.25 µg/mL (≈ 0.154 µM) in the experiment with Staphylococcus aureus and 4 µg/mL (≈ 2.47 µM) in the experiment on Enterococcus faecium [8].
